Where two headings read alike, the source gives them in different places.
How the values were obtained:
[1] = tested on: SARS-CoV-2 SL1 RNA (SL1 wt); format: binding; settings: for FBS binding to SL1, in words: ligand-detected NMR; for FBS binding to SL1, in words / Rank / CSP values relative to A.2: SL1 wt; for wLOGSY factor / T2 reduction [%] / CSP [Hz]: 10 μM SL1 wt, 200 μM ligand; for wLOGSY factor / T2 reduction [%]: pH 6.2; for T2 reduction [%]: CPMG 100 vs 5 ms; for Rank: FBS ranking from summed ranks of CSP, wLOGSY and T2 results; for CSP [Hz]: ligand 1H CSP, [RNA]:[ligand] 1:20, pH 6.2; for CSP values relative to A.2: ligand CSP
[2] = tested on: SL1 Δbulge RNA; format: binding, SARS-CoV-2
[3] = target: SL1 wt RNA; experiment: NMR-based KD estimation, ligand-detected 1D-1H titration; format: binding, SARS-CoV-2; settings: Suppl. Table 7, read-out: KDest
[4] = ligand constant at 100, SL1 wt RNA concentration 0-250
[5] = ligand constant at 100, SL1 wt RNA concentration 0-200

Row | Structure (SMILES) | FBS binding to SL1, in words [1] | FBS result (CSP, wLOGSY, T2 reduction) in words [2] | wLOGSY factor [1] | T2 reduction [%] [1] [%] | Rank [1] | CSP [Hz] [1] [Hz] | other results
1 | CC(=O)Nc1nc2ccccc2s1 [A.6] | only minor effects | – | – | – | – | – | –
2 | CC(C)(C)C(=O)Nc1nc2ccccc2s1 [A.7] | only minor effects | – | – | – | – | – | –
3 | CC(C)(C)C(=O)Nc1nc2ccc(Br)cc2s1 [A.8] | only minor effects | no effects | – | – | – | – | Kd [3, 4]: 254 µM
4 | CNC(=N)Nc1nc2ccc(O)cc2s1 [A.9] | – | no effects | 0.66 | 72.21 | 39 | 3.67 | Kd [3, 4]: 436 µM
5 | CN(C)CC(=O)Nc1nc2ccc(O)cc2s1 [A.12] | among the weakest binders | – | 0.15 | 69.00 | 40 | 10.02 | –
6 | COc1cc(OC)c2nc(NC(=O)CN(C)C)sc2c1 [A.15] | – | – | 2.66 | 36.00 | 16 | 31.92 | CSP values relative to A.2 [1]: 2–3 times; CSP [Hz] [2]: 9.18 Hz; Rank [2]: 2; T2 reduction [%] [2]: 84.62%; wLOGSY factor [2]: 0.47; Kd [3, 5]: 108 µM
7 | CN(C)CC(=O)Nc1nc2ccc(Br)cc2s1 [A.16] | – | no effects | 0.74 | 83.00 | 17 | 27.60 | CSP values relative to A.2 [1]: 2–3 times
8 | COc1ccc2nc(NC(=O)CN3CCN(C)CC3)sc2c1 [A.18] | positive effect on SL1 binding | no effects | 0.80 | 91.00 | 12 | 22.14 | –
9 | CSc1ccc2nc(NC(=O)CN(C)C)sc2c1 [A.19] | – | no effects | 0.46 | 87.00 | 18 | 25.08 | –
10 | COc1ccc2nc(NC(=O)CN(C)C)[nH]c2c1 [A.20] | higher score than that of A.2 | no effects | 0.62 | 87.00 | 15 | 25.08 | –
11 | COc1ccc(-c2nnc(NC(=O)CN(C)C)s2)cc1 [A.21] | – | – | 1.43 | 95.00 | 13 | 12.57 | –
12 | COc1ccc(-c2nnc(N)s2)cc1 [A.22] | no hit | – | – | – | – | – | –
13 | COc1ccc(-c2nnc(N)s2)cc1OC [A.23] | no hit | – | – | – | – | – | –
14 | CN(C)CC(=O)Nc1nc2ccc(N)cc2s1 [A.24] | among the weakest binders | no effects | 0.49 | 69.42 | 35 | 11.40 | –
15 | COc1cc(OC)c2nc(NC(=O)CN(C)Cc3ccccc3)sc2c1 [A.25] | – | no effects | – | – | – | – | –
16 | CN(C)CC(=O)Nc1nc2ccc(C(F)(F)F)cc2s1 [A.27] | – | no effects | – | – | – | – | –
17 | CN(C)CC(=O)Nc1nc2ccc(OC(F)(F)F)cc2s1 [A.28] | – | no effects | 1.01 | 85.67 | 21 | 13.56 | –

Row | Structure (SMILES) | FBS binding to SL1, in words [1] | FBS result (CSP, wLOGSY, T2 reduction) in words [2] | wLOGSY factor [1] | T2 reduction [%] [1] [%] | Rank [1] | CSP [Hz] [1] [Hz] | other results
18 | COCCN(C)CC(=O)Nc1nc2ccc(OC)cc2s1 [A.30] | – | – | 0.14 | 77.69 | 35 | 10.44 | –
19 | CN(C)CC(=O)Nc1nc2ccc(S(C)(=O)=O)cc2s1 [A.32] | – | no effects | 0.22 | 46.43 | 41 | 6.54 | –
20 | COc1ccc2nc(NC(=O)CN(C)Cc3cncnc3)sc2c1 [A.33] | detrimental to binding to SL1 | – | – | – | – | – | –
21 | COc1ccc2nc(N(C)C(=O)CN(C)C)sc2c1 [A.34] | slightly higher affinity | – | 2.15 | 81.54 | 13 | 19.56 | –
22 | COc1ccc2nc(NC(=O)CN(C)C)oc2c1 [A.35] | did not show any improvement | no effects | – | – | – | – | –
23 | COc1ccc2nc(NC(=O)CN3CCC[C@@H](N)C3)sc2c1 [A.37] | positive effect on SL1 binding | no effects | 1.01 | 100.00 | 3 | 24.72 | Kd [3, 5]: 171 µM
24 | COc1ccc2nc(NC(=O)CN(C)C)sc2n1 [A.38] | did not show any improvement | no effects | 1.22 | 73.62 | 23 | 16.14 | –
25 | COc1ccc2nc(NC(=O)CN3CCN(C)CC3)[nH]c2c1 [A.40] | reduced activity | no effects | 0.68 | 41.23 | 37 | 9.48 | –
26 | CN(C)CC(=O)Nc1nnc(-c2cc([N+](=O)[O-])cc([N+](=O)[O-])c2)s1 [A.41] | – | no effects | 0.59 | 93.02 | 21 | 13.68 | –
27 | CN(C)CC(=O)Nc1nnc(-c2ccc([N+](=O)[O-])cc2)s1 [A.42] | – | no effects | 0.90 | 86.63 | 24 | 12.36 | –
28 | CN(C)CC(=O)Nc1nnc(-c2cc(F)c(Cl)c([N+](=O)[O-])c2Cl)s1 [A.43] | – | no effects | 0.00 | 91.98 | 31 | 8.40 | –
29 | COc1ccc2nc(NC(=O)CN(C)C3CC(C)(C)NC(C)(C)C3)sc2c1 [A.44] | – | no effects | 1.19 | 76.80 | 27 | 12.99 | –
30 | COc1ccc2nc(NC(=O)CN3CCNCC3)sc2c1 [A.45] | positive effect on SL1 binding | – | 1.54 | 86.71 | 7 | 24.81 | CSP [Hz] [2]: 7.08 Hz; Rank [2]: 7; T2 reduction [%] [2]: 60.81%; wLOGSY factor [2]: 0.00; Kd [3, 5]: 162 µM
31 | CN(C)CC(=O)Nc1nc2cnc(Cl)nc2s1 [A.46] | did not show any improvement | no effects | – | – | – | – | –
32 | COc1ncc2nc(NC(=O)CN(C)C)sc2n1 [A.47] | did not show any improvement | no effects | – | – | – | – | –
33 | COc1ccc2nc(NC(=O)CN3CCC[C@H](NCc4cccc(O)c4)C3)sc2c1 [A.52] | – | no effects | 0.00 | 83.78 | 29 | 20.01 | –
34 | COc1ccc2nc(NC(=O)CN3CCC[C@@H](NCc4cccc(O)c4)C3)sc2c1 [A.53] | – | no effects | 0.00 | 85.86 | 28 | 21.03 | –
